This experiment has as its target T1, prion protein PrP (PrP^C, SHaPrP) (Mesocricetus auratus, UniProt P04273).
T1 construct: gene PRNP
The class given is binding.

T1 sequence (P04273 90-231 limits assumed): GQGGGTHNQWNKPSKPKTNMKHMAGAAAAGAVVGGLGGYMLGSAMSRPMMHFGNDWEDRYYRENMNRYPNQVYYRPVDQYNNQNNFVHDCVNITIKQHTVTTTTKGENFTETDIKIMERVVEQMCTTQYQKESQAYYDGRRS

As usually defined, the Kd is the equilibrium constant for the complex coming apart. For the molecule `C[n+]1ccc(-c2c3nc(c(-c4cc[n+](C)cc4)c4ccc([nH]4)c(-c4cc[n+](C)cc4)c4nc(c(-c5cc[n+](C)cc5)c5ccc2[nH]5)C=C4)C=C3)cc1.[Fe+3]` [Fe-TMPyP, iron(III) meso-tetra (N-methyl-4-pyridyl-porphine)], the Kd worked out at 9 ± 3 µM.
